In patent US8895051B2, “Flavoring systems for pharmaceutical compositions and methods of making such compositions” (AbbVie Inc., priority 2000, dated 2014):

Key:
solubility in water = assay type: physicochemical; settings: room temperature and pressure (approximately 25° C. and 1 atmosphere)
[1] = solubility in pharmaceutically acceptable solvents and in a co-solvent system; assay type: physicochemical

## Cc1cccc(C)c1OCC(=O)N[C@@H](Cc1ccccc1)[C@@H](O)C[C@H](Cc1ccccc1)NC(=O)[C@H](C(C)C)N1CCCNC1=O (relative stereo) [lopinavir, [1S-[1R*,(R*),3R*,4R*]]-N-[4-[[(2,6-dimethylphenoxy)acetyl]amino]-3-hydroxy-5-phenyl-1-(phenylmethyl)pentyl]tetrahydro-alpha-(1-methylethyl)-2-oxo-(2H)-pyrimidine acetamide]
Solubility in water
  solubility in water: practically insoluble
[1]; individual solvents, room temperature (about 25° C.)
  solubility in pharmaceutically acceptable solvents, such as propylene glycol and ethanol: adequately soluble
[1]; more than one solvent in the solvent system, versus individual solvents
  solubility in a co-solvent system: significantly improved
